{"source": "paper PMC4216207", "about": "(Journal of Medicinal Chemistry, 2014)", "key": {"[1]": {"system": "lentiviral vector harboring WT IN", "test": "microbe, parasite or virus in culture", "type": "cell-based, HIV-1", "settings": "for antiviral potency against WT vector with increasing FBS: 5%, 10% and 15% FBS, relative to values at 5% FBS, data not shown"}, "[2]": {"system": "HIV-1 construct carrying IN mutation R263 K", "test": "single-round HIV-1 infectivity assay, R263 K IN mutant", "type": "cell-based", "settings": "Human immunodeficiency virus 1, read-out: EC50 R263 K IN mutant"}, "[3]": {"system": "HIV-1 construct carrying IN mutation G118R", "test": "single-round HIV-1 infectivity assay, G118R IN mutant", "type": "cell-based", "settings": "Human immunodeficiency virus 1, read-out: EC50 G118R IN mutant"}, "[4]": {"test": "cellular cytotoxicity assay", "type": "cell-based", "settings": "human, HOS human osteosarcoma cells"}}, "data": [{"smiles": "CC(=O)OCCNc1c(C(=O)NCc2ccc(F)cc2F)c(=O)n(O)c2ncccc12", "note": "[5p, 2-((3-((2,4-Difluorobenzyl)carbamoyl)-1-hydroxy-2-oxo-1,2-dihydro-1,8-naphthyridin-4-yl)amino)ethyl Acetate]", "values": [{"measurement": "antiviral potency against WT vector with increasing FBS", "setting": "[1]", "value": "essentially unchanged"}]}, {"smiles": "Cc1nnc(C(=O)NC(C)(C)c2nc(C(=O)NCc3ccc(F)cc3)c(O)c(=O)n2C)o1", "note": "[compound 1, raltegravir]", "values": [{"measurement": "EC50", "setting": "[2]", "value": "0.009 ± 0.004", "unit": "µM"}, {"measurement": "EC50", "setting": "[3]", "value": "0.036 ± 0.005", "unit": "µM"}, {"measurement": "EC50", "setting": "[1]; Human immunodeficiency virus 1, read-out: EC50 (WT)", "value": "0.004 ± 0.002", "unit": "µM"}]}, {"smiles": "COC(=O)[C@H](Nc1c(C(=O)NCc2ccc(F)cc2F)c(=O)n(O)c2ncccc12)c1ccccc1", "note": "[(R)-5s, Methyl (R)-2-((3-((2,4-Difluorobenzyl)carbamoyl)-1-hydroxy-2-oxo-1,2-dihydro-1,8-naphthyridin-4-yl)amino)-2-phenylacetate]", "values": [{"measurement": "CC50", "setting": "[4]", "value": "> 250", "unit": "µM"}]}, {"smiles": "COC(=O)[C@H](C)Nc1c(C(=O)NCc2ccc(F)cc2F)c(=O)n(O)c2ncccc12", "note": "[(S)-5r, Methyl (S)-2-((3-((2,4-Difluorobenzyl)carbamoyl)-1-hydroxy-2-oxo-1,2-dihydro-1,8-naphthyridin-4-yl)amino)propanoate]", "values": [{"measurement": "CC50", "setting": "[4]", "value": "> 250", "unit": "µM"}]}, {"smiles": "Nc1c(C(=O)NCc2ccc(F)cc2F)c(=O)n(O)c2ncccc12", "note": "[5v, 4-Amino-N-(2,4-difluorobenzyl)-1-hydroxy-2-oxo-1,2-dihydro-1,8-naphthyridine-3-carboxamide]", "values": [{"measurement": "antiviral potency against WT vector with increasing FBS", "setting": "[1]", "value": "essentially unchanged"}]}, {"smiles": "COC(=O)CNc1c(C(=O)NCc2ccc(F)cc2F)c(=O)n(O)c2ncccc12", "note": "[5q, Methyl 2-((3-((2,4-Difluorobenzyl)carbamoyl)-1-hydroxy-2-oxo-1,2-dihydro-1,8-naphthyridin-4-yl)amino)acetate]", "values": [{"measurement": "antiviral potency against WT vector with increasing FBS", "setting": "[1]", "value": "essentially unchanged"}]}, {"smiles": "COC(=O)[C@@H](CO)Nc1c(C(=O)NCc2ccc(F)cc2F)c(=O)n(O)c2ncccc12", "note": "[(R)-5t, Methyl (R)-2-((3-((2,4-Difluorobenzyl)carbamoyl)-1-hydroxy-2-oxo-1,2-dihydro-1,8-naphthyridin-4-yl)amino)-3-hydroxypropanoate]", "values": [{"measurement": "CC50", "setting": "[4]", "value": "> 250", "unit": "µM"}]}]}
